In brackets after ≈: the same amount, converted by molar mass.
How the values were obtained:
Assay type in all cases: functional, cell-based
HL-60 = test: Cytotoxicity against Homo sapiens (human) HL60 cells by MTT assay
SGC-7901 = test: Cytotoxicity against Homo sapiens (human) SGC7901 cells by MTT assay
HT-29 = test: Cytotoxicity against Homo sapiens (human) HT-29 cells by MTT assay

SMILES | IC50 (HL-60) | IC50 (SGC-7901) | IC50 (HT-29)
CCCCCCCCCCCCCCCC(=O)OCC(CO[C@@H]1O[C@H](CO)[C@@H](O)[C@H](O)[C@H]1O)OC(=O)CCCCCCCCCCCCCCC (some centres undefined) | 27.7 µg/mL (≈ 37.9 µM) | 4.9 µg/mL (≈ 6.7 µM) | 0.21 µg/mL (≈ 0.287 µM)
CCCCCCCCCCCCCCCC(=O)OCCCCCCOC(=O)CCCCCCCCCCCCCCC | 0.49 µg/mL (≈ 0.824 µM) | 1.6 µg/mL (≈ 2.69 µM) | 34.2 µg/mL (≈ 57.5 µM)
O=c1[nH]cc(F)c(=O)[nH]1 [FLUOROURACIL] | 25.4 µg/mL (≈ 195 µM) | 0.58 µg/mL (≈ 4.46 µM) | 10.3 µg/mL (≈ 78.9 µM)
